Experimental data as given in patent USRE38425E1, “Semicarbazones having CNS activity and pharmaceutical preparations containing same” (University of Saskatchewan Technologies, Inc., priority 1995, dated 2004).

Experiments:
rats [1] = assay: MES screen after oral administration to rats; details: oral administration to rats; for MES screen ED50: time t (h) per compound as in the table
rats [2] = assay: scPTZ screen after oral administration to rats
Description: Initially doses of 50 mg/kg of the semicarbazones were administered.

mice [3] = details: intraperitoneal injection in mice; time t (h) per compound as in the table
mice [4] = details: intraperitoneal injection in mice; time t (h) per compound as in the table; remark: listed apart in the source
rats [5] = assay: neurotoxicity screen after oral administration to rats; details: oral administration to rats; time t (h) per compound as in the table
mice [6] = assay: MES screen after intraperitoneal injection in mice; assay type: in vivo; details: intraperitoneal injection in mice; time t (h) per compound as in the table
[7] = doses indicated in Table 1, after 0.5 h
[8] = doses indicated in Table 1, after 1 h
[9] = doses indicated in Table 1, after 4 h
[10] = doses indicated in Table 1, after 2 h

SMILES | MES screen 0.25 h: number of rats out of 4 which were protected (rats [1]; dose 50 mg/kg) | MES screen 0.5 h: number of rats out of 4 which were protected (rats [1]; dose 50 mg/kg, 0.5 h) | MES screen 1 h: number of rats out of 4 which were protected (rats [1]; dose 50 mg/kg, 1 h) | MES screen 2 h: number of rats out of 4 which were protected (rats [1]; dose 50 mg/kg, 2 h) | MES screen 4 h: number of rats out of 4 which were protected (rats [1]; dose 50 mg/kg, 4 h) | number of rats protected in the scPTZ screen (rats [2]; [7]) | number of rats protected in the scPTZ screen (rats [2]; [8]) | number of rats protected in the scPTZ screen (rats [2]; [9]) | neurotoxicity screen TD50 (mice [3]) | acPTZ screen ED50 (mice [4]) | neurotoxicity screen TD50 (rats [5]) | MES screen ED50 (rats [1]) | MES screen ED50 (mice [6]) | MES screen 0.5 h: number of rats out of 4 which were protected (rats [1]; dose 12.5 mg/kg, 0.5 h) | MES screen 1 h: number of rats out of 4 which were protected (rats [1]; dose 12.5 mg/kg, 1 h) | MES screen 2 h: number of rats out of 4 which were protected (rats [1]; dose 12.5 mg/kg, 2 h) | MES screen 4 h: number of rats out of 4 which were protected (rats [1]; dose 12.5 mg/kg, 4 h) | number of rats protected in the scPTZ screen (rats [2]; [10]) | also measured
NC(=O)NN=Cc1ccc(Oc2ccc(I)cc2)cc1 [Compound 4e] | 3 | 4 | 4 | 4 | 4 | 1/4 | 1/4 | 1/4 | – | – | – | – | – | – | – | – | – | – | –
Cc1ccc(Oc2ccc(C=NNC(N)=O)cc2)cc1 [Compound 4f] | 3 | 4 | 4 | 4 | 4 | – | – | – | 203.73 mg/kg | 88.55 mg/kg | >500 mg/kg | 3.43 mg/kg | 14.65 mg/kg | – | – | – | – | – | –
Cc1ccccc1Oc1ccc(C=NNC(N)=O)cc1 [Compound 5n] | – | – | – | – | – | 1/4 | 1/4 | – | – | – | >500 mg/kg | 5.65 mg/kg | – | 4 | 3 | 4 | 4 | 1/4 | –
CCCCc1ccc(Oc2ccc(C=NNC(N)=O)cc2)cc1 [Compound 5r] | – | – | – | – | – | – | 1/4 | 1/4 | 131.27 mg/kg | 86.93 mg/kg | >3.22 mg/kg | 3.21 mg/kg | 13.36 mg/kg | 2 | 2 | 3 | 4 | 2/4 | –
CC(C)(C)c1ccc(Oc2ccc(C=NNC(N)=O)cc2)cc1 [Compound 5s] | – | – | – | – | – | – | – | – | 105.92 mg/kg | >150.00 mg/kg | >500 mg/kg | 1.68 mg/kg | 8.87 mg/kg | – | 4 | 4 | 4 | – | –
CC(=NNC(N)=O)c1ccc(Oc2ccc(F)cc2)cc1 [Compound 13b] | – | – | – | – | – | – | – | – | 60.74 mg/kg | >80 mg/kg | 108.77 mg/kg | 3.37 mg/kg | 11.63 mg/kg | – | – | – | – | – | MES screen: number of rats out of 4 which were protected (rats [1]; dose 12.5 mg/kg, 0.5 h): 4; MES screen: number of rats out of 4 which were protected (rats [1]; dose 12.5 mg/kg, 1 h): 4; MES screen: number of rats out of 4 which were protected (rats [1]; dose 12.5 mg/kg, 2 h): 4; MES screen: number of rats out of 4 which were protected (rats [1]; dose 12.5 mg/kg, 4 h): 4
